We go through two compounds from patent publication US20240189387A1, “DOSING REGIMENS FOR HEMATOPOIETIC STEM CELL MOBILIZATION FOR STEM CELL TRANSPLANTS IN MULTIPLE MYELOMA PATIENTS” (Ensoma, Inc., priority 2021, published 2024).

Like-named read-outs stand apart in the source and are kept apart here.

Data set [1] relates to graft cell subsets (T cells, B cells, NK cells). To be noted: cited from earlier work.
Data set [2] concerns CD34+ cells. As to conditions: historical plerixafor alone data, Devine et al., Blood 2008; cited from earlier work.
Data set [3] is described as follows: Phase 1 trial: treatment emergent adverse events. As to conditions: Part B, combination n = 38; plerixafor n = 14.
Text: FIG. 1A depicts the treatments provided to patient cohorts enrolled in Part A and Part B of a Phase 1 clinical trial as well as measurable endpoints.
Patients were monitored for emergent adverse events.
The test system of data set [4] is CD34+ cells. The data set is described as follows: Phase 1 trial: mobilization of CD34+ cells into peripheral blood (multicolor flow cytometry). As to conditions: for % ≥20/μL peak CD34+ / Peak CD34+ (#/μL) Median (range): Day 1. A general note: A flow cytometer gives signals particle by particle.
The next data set deals with CD34+CD90+CD45RA− cells. The data set is described as follows: Phase 1 trial: mobilization of CD34+CD90+CD45RA− cells into peripheral blood (flow cytometry). To be noted: plerixafor alone.
In data set [5] the test system is hematopoietic stem and progenitor cells. To be noted: U.S. Pat. No. 6,447,766; cited from earlier work.
The mark [6] stands for this setting: Chen et al., 2019, 2 LP plerixafor, 1 LP G-CSF.
The mark [7] stands for this setting: Devine et al, 2008, yield of 1 LP.
Where [8] appears, read: Part B, plerixafor (pooled placebo + plerixafor), listed as plerixafor.
[9] abbreviates: Part C, 8 patients on combination (0.03 or […]), plerixafor alone.
Where [10] appears, read: Part C, plerixafor (pooled placebo + plerixafor), listed as plerixafor.

For `c1cc(CN2CCCNCCNCCCNCC2)ccc1CN1CCCNCCNCCCNCC1` [Plerixafor, 1,1′-[1,4-phenylenebis(methylene)]-bis-1,4,8,11-tetra-azacyclotetradecane], the “graft CD34+ Median (range)” value in data set [1] (Chen et al., 2019, 2 LP for plerixafor (N = 50+), 1 LP for G-CSF (N = 112+)) is listed as 4.7 (0.9-9.6) ×10^6/kg. Further, in data set [1] (setting [6]), the “graft CD3+ Median (range)” value is recorded as 6.0 (2.7-13.0) ×10^8/kg, the “graft CD4+ Median (range)” value was 3.6 (2.0-9.4) ×10^8/kg, the “graft CD8+ Median (range)” value is 2.2 (0.5-5.0) ×10^8/kg and the “graft CD19+ Median (range)” value is recorded as 1.5 (0.2-7.4) ×10^8/kg. In data set [1] (setting [6]), the “graft CD56+ Median (range)” value was 0.4 (0.0-1.1) ×10^8/kg. In data set [1] (setting [7]), the “graft CD3+ Median (range)” value is 4.6 (1.5-7.8) ×10^8/kg, the “graft CD4+ Median (range)” value is 3.2 (1-5.7) ×10^8/kg, the “graft CD8+ Median (range)” value is 1.3 (0.4-3.4) ×10^8/kg and the “graft CD19+ Median (range)” value is 1.0 (0.2-2.4) ×10^8/kg. Also, the “graft CD56+ Median (range)” value in data set [1] (setting [7]) was 0.3 (0.1-1.0) ×10^8/kg. Moreover, in data set [1] (Devine et al, 2008, yield of 1 LP, plerixafor N = 24, G-CSF N = 8), the “graft CD34+ Median (range)” value is 2.9 (1.2-6.3) ×10^6/kg. In the data set with CD34+ cells [2], the “patients with peak CD34+ ≥20 cells/μL (%)” value is recorded as 28% (7/25) and the “patients with peak CD34+ ≥40 cells/μL (%)” value is 4% (1/25). In data set [3], the Abdominal discomfort/pain was 4 (28.6) n (%), the “Back pain/Musculoskeletal pain” value is recorded as 2 (14.3) n (%), the Diarrhea is recorded as 5 (35.7) n (%) and the Dizziness is 1 (7.1) n (%). In data set [3], the Dysgeusia is reported as 2 (14.3) n (%), the Headache is on record as 1 (7.1) n (%), the Nausea is listed as 2 (14.3) n (%) and the Vomiting is recorded as 1 (7.1) n (%). Moreover, the “% ≥40/μL peak CD34+” value with CD34+ cells [4] (Part B, plerixafor) was determined as 21%. Besides, the “% ≥20/μL peak CD34+” value in the data set on CD34+ cells [4] (Part B, plerixafor (pooled placebo + plerixafor)) is 64%. Besides, in the data set with CD34+ cells [4] (setting [8]), the “% ≥20/μL peak CD34+” value was 64% and the “Peak CD34+ (#/μL) Median (range)” value is 26 #/μL. In the data set with CD34+ cells [4] (setting [9]), the “patients achieving peak CD34+ count of at least 20 cells per microliter” value is “none” and the “patients achieving peak CD34+ count of at least 40 cells per microliter” value is “none”. Moreover, in the data set on CD34+ cells [4] (Part C, plerixafor (pooled placebo + plerixafor)), the “% ≥20/μL peak CD34+” value was found to be 0%. In the data set on CD34+ cells [4] (setting [10]), the “% ≥20/μL peak CD34+” value came out at 0% and the “Peak CD34+ (#/μL) Median (range)” value was 18 #/μL. The “% ≥40/μL peak CD34+” value in the data set with CD34+ cells [4] (Part C, plerixafor, first day) stood at 0%. In addition, in the data set on CD34+ cells [4] (Part C, pooled placebo + plerixafor, Day 2), the “Peak CD34+ (#/μL) Median” value was 17 #/μL. For the same compound, in the data set with CD34+ cells [4] (Pooled B + C, plerixafor), the “% ≥40/μL peak CD34+” value worked out at 14% and the “% ≥20/μL peak CD34+” value came out at 50%. The “% ≥20/μL peak CD34+” value in the data set with CD34+ cells [4] (Pooled B + C, plerixafor, listed as plerixafor) was 56%. In the data set with CD34+ cells [4] (plerixafor alone), the “patients with peak CD34+ ≥20 cells/μL (%)” value is reported as 50% (7/14) and the “patients with peak CD34+ ≥40 cells/μL (%)” value was 14% (2/14). Also, in the data set with CD34+CD90+CD45RA− cells, the “median peak CD34+CD90+CD45RA− cells” value was determined as 8 cells/μL.
As to “Gro-β T N65D: SEQ ID NO: 4; Gro-β T with aspartic acid in place of asparagine at position 65”, the “potency (hematopoietic stem and progenitor cell mobilization) relative to Gro-β T” value in data set [5] is “substantially greater than that of Gro-β T”.
